test system: anti-etofenprox antibody II (E-antibody II); experiment: Indirect competitive ELISA employing E-antibody II; assay type: binding, rabbit; conditions: inhibition rate relative to etofenprox at its IC50 concentration (=100%); antibody 1/80,000, 20% methanol
Method: The ELISA method employing E-antibody II, on the other hand, will be described next. As the antigen, a 0.01 μg/ml solution of the conjugate between the haptenic compound (II) and RSA was employed. An E-antibody II solution, which had been diluted 64,000-fold, and a methanol solution of etofenprox were mixed at a ratio of 4:1 to give an antibody concentration and methanol concentration, each in the resulting solution, of 1/80,000 and 20%, respectively. The resulting solution was then reacted. As a second antibody, antirabbit IgG goat IgG in the form of a 5000-fold dilution was employed. In a similar manner to the above ELISA method, etofenprox concentrations ranging from 3 ng/ml to 1,000 ng/ml were successfully measured.
In addition, solutions of each of various pyrethroid compounds in methanol (concentration: 5-50,000 ng/ml) were each mixed with an E antibody II solution, which had been diluted 64,000-fold, at a ratio of 1:4, followed by incubation at 25° C. for one hour. The reaction mixture was treated as described in Example 8 and its cross reactivity was obtained.
The inhibition rates of other pyrethroid compounds when the inhibition rate of ethophenprox at IC50 concentration is designated as 100% are also shown as cross reactivity in Table 1.

Compared with `CCOc1ccc([Si](C)(C)OCc2cccc(Oc3ccccc3)c2)cc1` [SSI-116, dimethyl-(4-ethoxyphenyl)-(3-phenoxybenzyloxy)silane], `CCOc1ccc(C(C)(C)CCCc2cccc(Oc3ccccc3)c2)cc1` [MTI-790, 1-(3-phenoxyphenyl)-4-(4-ethoxyphenyl)-4-methylpentane] is lower in “Cross reactivity (%) E antibody II” value: 103% for the first, 37% for the second.

First: CC1(C)[C@H](C(=O)O[C@H](C#N)c2cccc(Oc3ccccc3)c2)[C@@H]1C(Br)C(Br)(Br)Br (stereo partly shown) [Tralomethrin, tralomethrin]
Second: CC1(C)C(C(=O)OC(C#N)c2cccc(Oc3ccccc3)c2)C1(C)C (stereo not shown) [Fenpropathrin, fenpropathrin]
The “Cross reactivity (%) E antibody II” value of the first is higher: 67% for the first, 48% for the second.

Compared with `CCOc1ccc(C(C)(C)CCCc2ccc(F)c(Oc3ccccc3)c2)cc1` [MTI-800, 1-(3-phenoxy-4-fluorophenyl)-4-(4-ethoxyphenyl)-4-methylpentane], `CCOc1ccc([Si](C)(C)CCCc2ccc(F)c(Oc3ccccc3)c2)cc1` [Silafluofen, silafluofen] is lower in “Cross reactivity (%) E antibody II” value: 34% for the first, 32% for the second.

Going from `CC(C)C(C(=O)OC(C#N)c1cccc(Oc2ccccc2)c1)c1ccc(Cl)cc1` (stereo not shown) [Fenvarerate, fenvarerate] to `CC(C)[C@H](C(=O)OC(C#N)c1cccc(Oc2ccccc2)c1)c1ccc(OC(F)F)cc1` (stereo partly shown) [Flucythrinate, flucythrinate], the “Cross reactivity (%) E antibody II” value rises from 50% to 60%.

Compared with `CC(C)[C@H](Nc1ccc(C(F)(F)F)cc1Cl)C(=O)OC(C#N)c1cccc(Oc2ccccc2)c1` (stereo partly shown) [Fluvalinate, fluvalinate], `CC1(C)C(/C=C(\Cl)C(F)(F)F)C1C(=O)OC(C#N)c1cccc(Oc2ccccc2)c1` (stereo not shown) [Cyhalothrin, cyhalothrin] is higher in “Cross reactivity (%) E antibody II” value: 23% for the first, 36% for the second.

First: CCOc1ccc(C2(C(=O)OC(C#N)c3cccc(Oc4ccccc4)c3)CC2(Cl)Cl)cc1 (stereo not shown) [Cycloprothrin, cycloprothrin]
Second: CC(C)(COCc1cccc(Oc2ccccc2)c1)c1ccc(OC(F)(F)Br)cc1 [Halfenprox, halfenprox]
The “Cross reactivity (%) E antibody II” value of the first is lower: 54% for the first, 75% for the second.

Going from `CC1(C)[C@H](C(=O)OCc2coc(Cc3ccccc3)c2)[C@@H]1/C=C1\CCSC1=O` [Kadethrin, kadethrin] to `CC(C)=CC1C(C(=O)OCc2coc(Cc3ccccc3)c2)C1(C)C` (stereo not shown) [Resmethrin, resmethrin], the “Cross reactivity (%) E antibody II” value falls from 164% to 85%.

Compared with `Cc1c(COC(=O)C2C(C=C(Cl)C(F)(F)F)C2(C)C)cccc1-c1ccccc1` (stereo not shown) [Biphenthrin, biphenthrin], `C=CCC1=C(C)C(OC(=O)C2C(C=C(C)C)C2(C)C)CC1=O` (stereo not shown) [Allethrin, allethrin] is lower in “Cross reactivity (%) E antibody II” value: 81% for the first, 54% for the second.

In the case of `CCOc1ccc(C(COCc2cccc(Oc3ccc(Cl)cc3)c2)C(F)(F)F)cc1` (stereo not shown) [Flufenprox], the “Cross reactivity (%) E antibody II” value is reported as 74%.

test system: anti-etofenprox antibody I (E-antibody I); experiment: Indirect competitive ELISA employing E-antibody I; assay type: binding, rabbit; conditions: inhibition rate relative to etofenprox at its IC50 concentration (=100%); antibody 1/40,000, 50% methanol
Method: 1. To a 96-well polystyrene microtiter plate, a solution of the conjugate between rabbit serum albumin (RSA) and the haptenic compound (I) dissolved in a coating buffer solution [10 mM phosphate buffer solution (pH 7.5), 100 mM NaC1] to give […] was added as an antigen at a ratio of 0.1 ml/well, followed by incubation at 4° C. overnight, whereby the antigen was adsorbed on the plate. After the excess solution was drained, a 3% solution of skim milk was added to the wells at a ratio of 0.3 ml/well, followed by incubation at 25° C. for one hour. The plate was washed thrice with a washing buffer [10 mM phosphate buffer solution (pH 7.2), 0.8% NaC1, 0.02% KCl, 0.02% "Tween 20"], whereby an antigen-coated plate was obtained.
2. The E-antibody I was diluted 20,000-fold with a diluting buffer [10 mM phosphate buffer solution (pH 7.5), 0.8% NaCl, 0.02% KCl] and was then mixed with a solution of etofenprox in methanol at a ratio of 1:1 to give an antibody concentration and a methanol concentration, both in the resulting solution, of 1/40,000 and 50%, respectively. The solution was reacted by incubation at 25° C. for one hour. The reaction mixture was added to the antigen-coated plate at a rate of 0.1 ml/well, followed by the reaction at 25° C. for one hour. The plate was then washed thrice with the washing buffer.
3. A conjugate between horseradish peroxidase and anti-rabbit IgG goat IgG (a second antibody) was diluted 10,000-fold with the washing buffer. The diluted conjugate was added to the antigen-coated plate at a rate of 0.1 ml/well, followed by incubation at 25° C. for one hour. The plate was washed thrice with the washing buffer.
4. To the antigen-coated plate, a chromogenic solution of o-phenylenediamine [0.2% (v/v) o-phenylenediamine and 100 mM phosphate-citrate buffer solution [pH 5.0, 0.003% (v/v) hydrogen peroxide] was added in an amount of 0.2 ml/well, followed by incubation at 25° C. for 10 minutes. The enzymatic reaction was then terminated by adding 4N sulfuric acid to the plate by at a rate of 0.05 ml/well. The absorbances at 492 nm and 630 nm were thereafter measured, respectively. According to this method, etofenprox concentrations ranging from 10 ng/ml to 10,000 ng/ml were successfully measured.
A solution of each of various pyrethroid compounds in methanol (having a concentration of 2-20,000 ng/ml) was mixed with a solution of the E antibody I, which had been diluted 20,000-fold with a diluting buffer, at a ratio of 1:1, followed by incubation at 25° C. for one hour.
Using the reaction mixture, measurement was conducted by the ELISA method as described in Example 8. The absorbance of the reaction mixture which had been obtained without addition of any pyrethroid compound is designated as 100%. The concentration of etophenprox. which inhibited 50% of the absorbance is designated as IC50 concentration. The inhibition rates of other pyrethroid compounds when the inhibition rate of ethophenprox at IC50 concentration is designated as 100% are shown as cross reactivity in Table 1.

Compared with `CCOc1ccc([Si](C)(C)OCc2cccc(Oc3ccccc3)c2)cc1` [SSI-116, dimethyl-(4-ethoxyphenyl)-(3-phenoxybenzyloxy)silane], `CCOc1ccc(C(C)(C)CCCc2cccc(Oc3ccccc3)c2)cc1` [MTI-790, 1-(3-phenoxyphenyl)-4-(4-ethoxyphenyl)-4-methylpentane] is lower in “Cross reactivity (%) E antibody I” value: 70% for the first, 23% for the second.

First: CC1(C)[C@H](C(=O)O[C@H](C#N)c2cccc(Oc3ccccc3)c2)[C@@H]1C(Br)C(Br)(Br)Br (stereo partly shown) [Tralomethrin, tralomethrin]
Second: CC1(C)C(C(=O)OC(C#N)c2cccc(Oc3ccccc3)c2)C1(C)C (stereo not shown) [Fenpropathrin, fenpropathrin]
The “Cross reactivity (%) E antibody I” value of the first is lower: 116% for the first, 136% for the second.

Going from `CCOc1ccc(C(C)(C)CCCc2ccc(F)c(Oc3ccccc3)c2)cc1` [MTI-800, 1-(3-phenoxy-4-fluorophenyl)-4-(4-ethoxyphenyl)-4-methylpentane] to `CCOc1ccc([Si](C)(C)CCCc2ccc(F)c(Oc3ccccc3)c2)cc1` [Silafluofen, silafluofen], the “Cross reactivity (%) E antibody I” value rises from 54% to 57%.

Going from `CC(C)C(C(=O)OC(C#N)c1cccc(Oc2ccccc2)c1)c1ccc(Cl)cc1` (stereo not shown) [Fenvarerate, fenvarerate] to `CC(C)[C@H](C(=O)OC(C#N)c1cccc(Oc2ccccc2)c1)c1ccc(OC(F)F)cc1` (stereo partly shown) [Flucythrinate, flucythrinate], the “Cross reactivity (%) E antibody I” value rises from 47% to 126%.

Going from `CC(C)[C@H](Nc1ccc(C(F)(F)F)cc1Cl)C(=O)OC(C#N)c1cccc(Oc2ccccc2)c1` (stereo partly shown) [Fluvalinate, fluvalinate] to `CC1(C)C(/C=C(\Cl)C(F)(F)F)C1C(=O)OC(C#N)c1cccc(Oc2ccccc2)c1` (stereo not shown) [Cyhalothrin, cyhalothrin], the “Cross reactivity (%) E antibody I” value rises from 70% to 92%.

First: CCOc1ccc(C2(C(=O)OC(C#N)c3cccc(Oc4ccccc4)c3)CC2(Cl)Cl)cc1 (stereo not shown) [Cycloprothrin, cycloprothrin]
Second: CC(C)(COCc1cccc(Oc2ccccc2)c1)c1ccc(OC(F)(F)Br)cc1 [Halfenprox, halfenprox]
The “Cross reactivity (%) E antibody I” value of the first is higher: 103% for the first, 85% for the second.

First: CC1(C)[C@H](C(=O)OCc2coc(Cc3ccccc3)c2)[C@@H]1/C=C1\CCSC1=O [Kadethrin, kadethrin]
Second: CC(C)=CC1C(C(=O)OCc2coc(Cc3ccccc3)c2)C1(C)C (stereo not shown) [Resmethrin, resmethrin]
The “Cross reactivity (%) E antibody I” value of the first is lower: 62% for the first, 74% for the second.

First: Cc1c(COC(=O)C2C(C=C(Cl)C(F)(F)F)C2(C)C)cccc1-c1ccccc1 (stereo not shown) [Biphenthrin, biphenthrin]
Second: C=CCC1=C(C)C(OC(=O)C2C(C=C(C)C)C2(C)C)CC1=O (stereo not shown) [Allethrin, allethrin]
The “Cross reactivity (%) E antibody I” value of the first is higher: 86% for the first, 46% for the second.

For `CCOc1ccc(C(COCc2cccc(Oc3ccc(Cl)cc3)c2)C(F)(F)F)cc1` (stereo not shown) [Flufenprox], the “Cross reactivity (%) E antibody I” value was 108%.

Reference: patent US5608104A, “Immunological detection method of pyrethroid compound, haptenic compound, intermediate for the haptenic compound, immunogen and antibody” (Mitsui Toatsu Chemicals, Inc., priority 1993, dated 1997)
